Molecules are shown by their SMILES. Where a name gives a salt, the structure may show the parent alone. Read-outs that look alike come from different tables or passages of the source.

Consider nine compounds from patent US20150368242A1, “NOVEL TETRAHYDROPYRIDOPYRIMIDINONE DERIVATIVE” (Ajinomoto Co., Inc., priority 2013, published 2015).

The assay addresses T1, recombinant human MGAT2 enzyme (Homo sapiens, UniProt Q3SYC2).
T1 construct: made in house; host or cells: CHO-K1 (Jump-In CHO-K1 Kit, Life Technologies); microsomal fraction used as the enzyme solution
Nature of the assay: Test for human MGAT2 activity inhibitory action (14C-oleoyl CoA, recombinant enzyme microsomes). It is filed as biochemical. Details: key to Potency relative to Comparative Example 1 (higher = more potent): % inhibition = {1−(C−B)/(A−B)}×100, B = 10 μM Comparative Example 1. The following applies: for IC50: read-out: IC50. On the procedure:
The human MGAT2 gene described in Am. J. Physiol. Endocrinol. Metab. 285: E927-E937, 2003 was expressed using Jump-In™ CHO-K1 Kit (Life technologies) as described in the attached manual. The cells were suspended in a buffer containing Tris-hydrochloric acid (pH 7.4) at a final concentration of 1 mM, 1 mM ethylenediaminetetraacetic acid, 1 mM dithiothreitol, 250 mM sucrose, and complete protease inhibitor cocktail (Roche applied Science), and then disrupted using a Teflon homogenizer (AS ONE Corporation), followed by centrifugation at 130 g for 10 minutes. The supernatant was further centrifuged at 100,000 g for 1 hour to obtain a pellet as microsomes containing the recombinant enzyme, and a solution obtained by suspending this pellet at a protein concentration of about 800 to 1900 μg/ml was used as an MGAT recombinant enzyme solution.
To a buffer containing 50 mM Tris-hydrochloric acid (pH 7.4), 6 mM magnesium chloride, and 2 mg/mL bovine serum albumin, a test compound was added, and the final concentration of dimethyl sulfoxide was adjusted to 0.3%. Moreover, 2-monooleoyl glycerol, oleoyl CoA, 1-^14C-oleoyl CoA (Perkin Elmer), and orlistat (SIGMA) were added at final concentrations of 50 μM, 50 μM, 2.2 μM, and 8.3 μM, respectively, followed by incubation at 37° C. for 10 minutes. After 10 minutes, the recombinant human MGAT2 enzyme solution was added at a final concentration of 0.67 μg/mL, and the reaction was started, with the amount of the reaction solution being 150 μl. The reaction was carried out at 37° C. for 30 minutes.
After 30 minutes, the reaction was stopped by adding 300 μl of isopropanol:heptane:water=(80:20:2) to the reaction liquid. Further, 200 μl of heptane and 100 μl of water were added, followed by stirring. Then, 100 μl of the upper layer was transferred to a 96-well plate (Corning), and mixed with 100 μl of liquid scintillator (LumaSafe Plus, Lumac). Then, the ^14C count was quantitatively determined using TopCount NXT™ microplate scintillation luminescence counter (Perkin Elmer).
The ^14C count in a case where no test compound was added was defined as A, the ^14C count in a case where 10 μM of the compound (Comparative Example 1) of Example No. 8 of WO2008/038768 was added was defined as B, and the ^14C count in the case where the test compound was added was taken as C. For this case, {1−(C−B)/(A−B)}×100(%) was calculated as the human MGAT2 activity inhibition ratio of the test compound (shown in the column named vs Comp. Ex. 1 in the following Table). A greater value of the “vs Comparative Example 1” means that the MGAT2 activity inhibitory action of the compound of Example was higher as compared to the MGAT2 activity inhibitory action of the compound of Comparative Example 1 (i.e., the human MGAT2 activity inhibition ratio was higher). […] Since this evaluation test was conducted for two separate groups, the test results of the two groups are shown separately in Table (First Test) and Table 4 (Second Test).
Next, the compounds of Examples 25 to 60 of the present invention were also investigated for their pharmacological action by using the same method as in Examples 1 to 24. […] Note that, a comparative evaluation test against the compound of Comparative Example 1 was conducted for each of the compounds of Examples (in every measurement of the inhibitory activity of the compounds of Examples 25 to 60, the inhibitory activity of the compound of Comparative Example 1 was measured). The 50% inhibition concentrations of Comparative Example 1 in the measurement of the inhibitory activities of the compounds of Examples 25 to 60 were shown in Table 5 as “IC50 (nM) of Comparative Example 1.”

[1] abbreviates: Second Test (Table 4), relative to Comparative Example 1.
The mark [2] stands for this setting: Table 5, Examples 25 to 60, same method.
Where [3] appears, read: Table 5, relative to Comparative Example 1 measured in the same run.

T1 sequence (Q3SYC2 whole entry): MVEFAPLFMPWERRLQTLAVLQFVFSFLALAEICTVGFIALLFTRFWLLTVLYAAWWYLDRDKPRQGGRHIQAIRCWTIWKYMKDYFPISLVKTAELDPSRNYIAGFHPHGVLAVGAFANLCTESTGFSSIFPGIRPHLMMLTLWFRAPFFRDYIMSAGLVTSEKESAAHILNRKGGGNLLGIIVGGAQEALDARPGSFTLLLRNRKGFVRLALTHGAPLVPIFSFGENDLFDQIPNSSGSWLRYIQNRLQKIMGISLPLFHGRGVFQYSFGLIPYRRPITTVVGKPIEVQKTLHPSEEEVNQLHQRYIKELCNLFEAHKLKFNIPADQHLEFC

By IC50 is commonly meant the concentration that inhibits the measured activity by half. With `O=C(CCNCc1ccc(C(F)(F)F)cc1)N1CCc2nc(SC3CCC3)n(-c3ccccc3)c(=O)c2C1` [Example 19, 2-cyclobutylsulfanyl-3-phenyl-6-[3-[[4-(trifluoromethyl)phenyl]methylamino]propanoyl]-7,8-dihydro-5H-pyrido[4,3-d]pyrimidin-4-one trifluoroacetate], under “Second Test (Table 4)”, the IC50 turned out to be 0.9 nM. For the same compound, the “Potency relative to Comparative Example 1 (higher = more potent)” value under setting [1] came out at 352.

On to `O=C(CCNCc1csc2ccccc12)N1CCc2nc(SC3CCC3)n(-c3ccccc3)c(=O)c2C1` [Example 20, 6-[3-(benzothiophen-3-ylmethylamino)propanoyl]-2-cyclobutylsulfanyl-3-phenyl-7,8-dihydro-5H-pyrido[4,3-d]pyrimidin-4-one trifluoroacetate], for which, where the note is “Second Test (Table 4)”, the IC50 amounted to 1 nM. Moreover, the “Potency relative to Comparative Example 1 (higher = more potent)” value under setting [1] is listed as 300.

On to `O=C(CCNCc1cc2ccccc2[nH]1)N1CCc2nc(SC3CCC3)n(-c3ccccc3)c(=O)c2C1` [Example 21, 2-cyclobutylsulfanyl-6-[3-(1H-indol-2-ylmethylamino)propanoyl]-3-phenyl-7,8-dihydro-5H-pyrido[4,3-d]pyrimidin-4-one trifluoroacetate], for which, where the note is “Second Test (Table 4)”, the IC50 was 1.2 nM. Moreover, the “Potency relative to Comparative Example 1 (higher = more potent)” value under setting [1] was 246.

`O=C(CCCNCc1ccc(C(F)(F)F)cc1)N1CCc2nc(SC3CCC3)n(-c3ccccc3)c(=O)c2C1` [Example 22, 2-cyclobutylsulfanyl-3-phenyl-6-[4-[[4-trifluoromethyl)phenyl]methylamino]butanoyl]-7,8-dihydro-5H-pyrido[4,3-d]pyrimidin-4-one trifluoroacetate]: the concentration for half-maximal inhibition (IC50) (Second Test (Table 4)) was determined as 3.8 nM. Besides, the “Potency relative to Comparative Example 1 (higher = more potent)” value under setting [1] came out at 79.

Turning to `O=C(CCNCCc1c[nH]c2ccccc12)N1CCc2nc(SC3CCC3)n(-c3ccccc3)c(=O)c2C1` [Example 23, 2-cyclobutylsulfanyl-6-[3-[2-(1H-indol-3-yl)ethylamino]propanoyl]-3-phenyl-7,8-dihydro-5H-pyrido[4,3-d]pyrimidin-4-one trifluoroacetate)], the IC50 (Second Test (Table 4)) stood at 1.6 nM. Besides, under setting [1], the “Potency relative to Comparative Example 1 (higher = more potent)” value worked out at 193.

Consider `O=C(CCNCc1ccc(OC(F)(F)F)cc1)N1CCc2nc(SC3CCC3)n(-c3ccccc3)c(=O)c2C1` [Example 24, 2-cyclobutylsulfanyl-3-phenyl-6-[3-[[4-(trifluoromethoxy)phenyl]methylamino]propanoyl]-7,8-dihydro-5H-pyrido[4,3-d]pyrimidin-4-one trifluoroacetate)], for which, where the note is “Second Test (Table 4)”, the IC50 amounted to 1.4 nM. The “Potency relative to Comparative Example 1 (higher = more potent)” value under setting [1] is listed as 221.

As to `[2H]c1c([2H])c([2H])c(C([2H])([2H])NCCC(=O)N2CCc3nc(SC4CCC4)n(-c4ccccc4)c(=O)c3C2)c([2H])c1[2H]` [Example 25, 2-cyclobutylsulfanyl-6-[3-[[dideuterio-(2,3,4,5,6-pentadeuteriophenyl)methyl]amino]propanoyl]-3-phenyl-7,8-dihydro-5H-pyrido[4,3-d]pyrimidin-4-one trifluoroacetate], under setting [2], the IC50 is 2.2 nM. Moreover, under setting [3], the “Potency relative to Comparative Example 1 (higher = more potent)” value amounted to 111.

`Cc1cc2cccc(CNCCC(=O)N3CCc4nc(SC5CCC5)n(-c5ccccc5)c(=O)c4C3)c2o1` [Example 26, 2-cyclobutylsulfanyl-6-[3-[(2-methylbenzofuran-7-yl)methylamino]propanoyl]-3-phenyl-7,8-dihydro-5H-pyrido[4,3-d]pyrimidin-4-one trifluoroacetate]: the IC50 under setting [2] was 1 nM. Also, the “Potency relative to Comparative Example 1 (higher = more potent)” value under setting [3] was 196.

With `O=C(CCNCc1ccc2c(c1)OCO2)N1CCc2nc(SC3CCC3)n(-c3ccccc3)c(=O)c2C1` [Example 28, 6-[3-(1,3-benzodioxol-5-ylmethylamino)propanoyl]-2-cyclobutylsulfanyl-3-phenyl-7,8-dihydro-5H-pyrido[4,3-d]pyrimidin-4-one trifluoroacetate], under setting [2], the IC50 came to 1.7 nM. Also, the “Potency relative to Comparative Example 1 (higher = more potent)” value under setting [3] is given as 125.
